Reference: article PMC8041284, “Tunable Methacrylamides for Covalent Ligand Directed Release Chemistry” (Journal of the American Chemical Society, 2021)

Each compound was assayed against BTK (Homo sapiens, UniProt Q06187) (assay: biochemical). Details: read-out: BTK inhibition (%).
Sequence of BTK (Q06187 402-655 limits assumed): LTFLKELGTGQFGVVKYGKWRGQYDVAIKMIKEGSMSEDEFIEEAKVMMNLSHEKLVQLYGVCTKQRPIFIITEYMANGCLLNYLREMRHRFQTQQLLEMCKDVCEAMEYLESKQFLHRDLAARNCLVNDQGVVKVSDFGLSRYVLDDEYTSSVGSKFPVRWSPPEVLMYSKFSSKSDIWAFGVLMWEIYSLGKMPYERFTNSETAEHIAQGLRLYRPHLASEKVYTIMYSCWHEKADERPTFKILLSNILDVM

With C[C@]12CCC(=O)C[C@@H]1CC[C@@H]1[C@@H]2CC[C@]2(C)[C@@H](O)CC[C@@H]12 [PCM-0214865] as the compound, how does the inhibition at 10 µM read?
The inhibition at 10 µM was -21%.

Same assay, conditions: read-out: BTK inhibition (%), 0.75 uM BTK, […] probe 3l, 15 min preincubation

With Cc1ccsc1C(=CCCN1CCC[C@@H](C(=O)O)C1)c1sccc1C [PCM-0214833] as the compound, how does the inhibition at 10 µM read?
The inhibition at 10 µM was -7%.

CC(=O)O[C@H]1CC(=O)OC(C)(C)[C@@H]2CC(=O)[C@]3(C)[C@H](CC[C@@]4(C)[C@H](c5ccoc5)OC(=O)[C@H]5O[C@]543)[C@@]12C [PCM-0216014] was tested. Which inhibition at 10 µM did it give?
The inhibition at 10 µM was 13.9%.

CCOc1cc(N2CCC(O)CC2)ccc1Nc1ncc2c(n1)N(C)c1ccccc1C(=O)N2C [PCM-0095769] was tested. Which inhibition at 10 µM did it give?
Its inhibition at 10 µM is -6.2%.

With OC(c1cc(-c2ccc(Cl)cc2)nc2ccccc12)C1CCCCN1 (stereo not shown) [PCM-0215603] as the compound, how does the inhibition at 10 µM read?
The inhibition at 10 µM was 19.3%.

Which inhibition at 10 µM does the source give for CC(=O)OC(CC(=O)O)C[N+](C)(C)C (stereo not shown) [PCM-0216588] here?
The inhibition at 10 µM was -18.5%.

With CC(C)=CCC[C@](C)(O[C@@H]1O[C@H](CO[C@@H]2OC[C@@H](O)[C@H](O)[C@H]2O)[C@@H](O)[C@H](O)[C@H]1O)[C@H]1CC[C@]2(C)[C@@H]1[C@H](O)C[C@@H]1[C@@]3(C)CC[C@H](O[C@@H]4O[C@H](CO)[C@@H](O)[C@H](O)[C@H]4O)C(C)(C)[C@@H]3CC[C@]12C [PCM-0214676] as the compound, how does the inhibition at 10 µM read?
The inhibition at 10 µM was 35.8%.

CN1CC(=O)N2[C@H](c3ccc4c(c3)OCO4)c3[nH]c4ccccc4c3C[C@@H]2C1=O [PCM-0214630] was tested. Which inhibition at 10 µM did it give?
Its inhibition at 10 µM is -6.2%.

CCCc1ncc(C[n+]2ccccc2C)c(N)n1 [PCM-0085765] was tested. Which inhibition at 10 µM did it give?
The inhibition at 10 µM was -8.5%.

Cn1nccc1Nc1nccc(-c2cc3c(s2)C(C)(C)N(CCN2CCOCC2)C3=O)n1 [PCM-0215875] was tested. Which inhibition at 10 µM did it give?
Its inhibition at 10 µM is 6.9%.

For CCN(CC)Cc1cc(Nc2ccnc3cc(Cl)ccc23)ccc1O [PCM-0085909], which inhibition at 10 µM is on record?
The inhibition at 10 µM was 8.3%.

How did the inhibition at 10 µM turn out when Cc1ccc(C(=O)N(CCCN)[C@@H](c2oc3cc(Cl)ccc3c(=O)c2Cc2ccccc2)C(C)C)cc1 [PCM-0095226] was run?
The inhibition at 10 µM was -2.3%.

For Cc1cc(NS(=O)(=O)c2ccc(N)cc2)nc(C)n1 [PCM-0216097], which inhibition at 10 µM is on record?
The inhibition at 10 µM was 11%.

CNCc1cc(-c2ccccc2F)n(S(=O)(=O)c2cccnc2)c1 [PCM-0095606] was tested. Which inhibition at 10 µM did it give?
Its inhibition at 10 µM is 17%.

Which inhibition at 10 µM does the source give for C/C(=C\CNc1ncnc2nc[nH]c12)CO [PCM-0215137] here?
The inhibition at 10 µM was -13.2%.

How did the inhibition at 10 µM turn out when CC1=C(C(=O)OC2CCCCC2)C(c2ccc([N+](=O)[O-])cc2)C2=C(CC(C)(C)CC2=O)N1 (stereo not shown) [PCM-0095815] was run?
Its inhibition at 10 µM is 46.3%.

With c1cc2c(c3c1CC1c4cc5c(cc4CCN1C3)OCO5)OCO2 (stereo not shown) [PCM-0216476] as the compound, how does the inhibition at 10 µM read?
Its inhibition at 10 µM is -13.9%.

Which inhibition at 10 µM does the source give for NCCCCCNCC12CC3CC(CC(C3)C1)C2 [PCM-0095503] here?
The inhibition at 10 µM was -19.5%.

CCCCCCCCC(=O)O [PCM-0216031] was tested. Which inhibition at 10 µM did it give?
The inhibition at 10 µM was -8.6%.

Which inhibition at 10 µM does the source give for CN[C@@H]1[C@@H](O[C@H]2O[C@H](CO)[C@@H](N)[C@H](O)[C@H]2O)O[C@H]2C[C@@H](N)[C@@H](O[C@H]3[C@H](O)[C@@H](O)[C@H](N)C[C@@H]3N)O[C@@H]2[C@@H]1O [PCM-0215222] here?
The inhibition at 10 µM was 8.5%.

Cc1ccc(-n2nc(C(C)(C)C)cc2NC(=O)NCc2cc(F)ccc2Oc2ccc3c(cnn3CCO)c2)cc1 [PCM-0215475] was tested. Which inhibition at 10 µM did it give?
Its inhibition at 10 µM is 28.3%.

How did the inhibition at 10 µM turn out when CC(C)=CCC[C@](C)(O[C@@H]1O[C@H](CO[C@@H]2O[C@H](CO)[C@@H](O)[C@H](O)[C@H]2O)[C@@H](O)[C@H](O)[C@H]1O)[C@H]1CC[C@]2(C)[C@@H]1[C@H](O)C[C@@H]1[C@@]3(C)CC[C@H](O[C@@H]4O[C@H](CO)[C@@H](O)[C@H](O)[C@H]4O)C(C)(C)[C@@H]3CC[C@]12C [PCM-0216463] was run?
Its inhibition at 10 µM is 4.6%.

With CC(=O)O[C@H]1C(=O)[C@]2(C)[C@H](O)C[C@H]3OC[C@@]3(OC(C)=O)[C@H]2[C@H](OC(=O)c2ccccc2)[C@]2(O)C[C@H](OC(=O)[C@H](O)[C@@H](NC(=O)c3ccccc3)c3ccccc3)C(C)=C1C2(C)C [PCM-0216508] as the compound, how does the inhibition at 10 µM read?
Its inhibition at 10 µM is 16.2%.

For Nc1nc(=S)c2[nH]cnc2[nH]1 [PCM-0090185], which inhibition at 10 µM is on record?
The inhibition at 10 µM was -1.6%.

For O=S(=O)(c1cccc2cnccc12)N1CCCNCC1 [PCM-0090675], which inhibition at 10 µM is on record?
The inhibition at 10 µM was -17.9%.

C[N+](C)(C)CCOP(=O)([O-])OP(=O)(O)OC[C@H]1O[C@@H](n2ccc(N)nc2=O)[C@H](O)[C@@H]1O [PCM-0215877] was tested. Which inhibition at 10 µM did it give?
The inhibition at 10 µM was 0.9%.

How did the inhibition at 10 µM turn out when C=C(C)[C@@H]1CC[C@]2(C(=O)O)CC[C@]3(C)[C@H](CC[C@@H]4[C@@]5(C)CC[C@H](O)[C@@](C)(CO)[C@@H]5CC[C@]43C)[C@@H]12 [PCM-0216604] was run?
The inhibition at 10 µM was 26.3%.

With CCc1nc(C(N)=O)c(Nc2ccc(N3CCC(N4CCN(C)CC4)CC3)c(OC)c2)nc1NC1CCOCC1 [PCM-0215866] as the compound, how does the inhibition at 10 µM read?
The inhibition at 10 µM was 73.8%.

With O=C(Oc1coc(CSc2ncccn2)cc1=O)c1ccc([N+](=O)[O-])cc1 [PCM-0216050] as the compound, how does the inhibition at 10 µM read?
Its inhibition at 10 µM is -3.9%.

For Cc1cn(-c2cc(NC(=O)c3ccc(C)c(Nc4nccc(-c5cnccn5)n4)c3)cc(C(F)(F)F)c2)cn1 [PCM-0215584], which inhibition at 10 µM is on record?
Its inhibition at 10 µM is -4.1%.

Which inhibition at 10 µM does the source give for Nc1nc(F)nc2c1ncn2[C@@H]1O[C@H](CO)[C@@H](O)[C@@H]1O [PCM-0086227] here?
The inhibition at 10 µM was -19.5%.

With O=C(NCc1ccncc1)C12CC3CC(C1)CC(c1ccc(Cl)cc1)(C3)C2 [PCM-0215553] as the compound, how does the inhibition at 10 µM read?
The inhibition at 10 µM was -6.9%.

Which inhibition at 10 µM does the source give for CC[C@@H](C)Nc1cc(C(=O)NC2C[C@H]3CC[C@@H](C2)N3c2ccc(C(=O)C3CC3)cn2)c(C)cc1C(N)=O (stereo partly shown) [PCM-0215196] here?
The inhibition at 10 µM was -0.8%.

CC(C)CCNc1ncccc1C(=O)N1CCN(Cc2ccccc2)CC1 [PCM-0216256] was tested. Which inhibition at 10 µM did it give?
Its inhibition at 10 µM is -30.1%.

Which inhibition at 10 µM does the source give for Cn1c(=O)cc(N2CCC[C@@H](N)C2)n(Cc2cc(F)ccc2C#N)c1=O [PCM-0095818] here?
Its inhibition at 10 µM is 15.4%.

COc1ccc(-c2cc(=O)c3c(O)cc(O)cc3o2)cc1 [PCM-0216090] was tested. Which inhibition at 10 µM did it give?
The inhibition at 10 µM was 16.6%.

Which inhibition at 10 µM does the source give for c1csc(-c2ccc(-c3cccs3)s2)c1 [PCM-0215157] here?
Its inhibition at 10 µM is 0%.

For CCOC(=O)[C@H](CCc1ccccc1)N[C@@H](C)C(=O)N1C(=O)N(C)C[C@H]1C(=O)O [PCM-0214860], which inhibition at 10 µM is on record?
The inhibition at 10 µM was 7%.

For Cc1c(C(=O)Nc2ccc(Oc3ccnc4[nH]cc(-c5ccccc5)c34)c(F)c2)c(=O)n(-c2ccc(F)cc2)n1C [PCM-0215493], which inhibition at 10 µM is on record?
The inhibition at 10 µM was 95.9%.

With Cc1cc(C)c(CNC(=O)c2cc(-c3ccc(CN4CCOCC4)cc3)cc3c2cnn3C2CCCC2)c(=O)[nH]1 [PCM-0215223] as the compound, how does the inhibition at 10 µM read?
Its inhibition at 10 µM is -6.8%.

For NC(N)=NCCCC(N)C(=O)O (stereo not shown) [PCM-0064685], which inhibition at 10 µM is on record?
Its inhibition at 10 µM is -17%.

For COc1ccc(C[C@@H]2c3cc(OC)c(OC)cc3CC[N@+]2(C)CCC(=O)OCCCCCOC(=O)CC[N@@+]2(C)CCc3cc(OC)c(OC)cc3[C@H]2Cc2ccc(OC)c(OC)c2)cc1OC [PCM-0095290], which inhibition at 10 µM is on record?
The inhibition at 10 µM was -8.6%.

Which inhibition at 10 µM does the source give for NC(=O)c1ccc(I)c([N+](=O)[O-])c1 [PCM-0095053] here?
The inhibition at 10 µM was -1.4%.

With CCC(=O)NCC[C@@H]1CCc2ccc3c(c21)CCO3 [PCM-0090528] as the compound, how does the inhibition at 10 µM read?
The inhibition at 10 µM was -20.2%.

O=C[C@H](O)[C@@H](O)[C@H](O[C@H]1O[C@H](CO)[C@@H](O[C@H]2O[C@H](CO)[C@@H](O[C@H]3O[C@H](CO)[C@@H](O[C@H]4O[C@H](CO)[C@@H](O)[C@H](O)[C@H]4O)[C@H](O)[C@H]3O)[C@H](O)[C@H]2O)[C@H](O)[C@H]1O)[C@H](O)CO [PCM-0216396] was tested. Which inhibition at 10 µM did it give?
The inhibition at 10 µM was 3.1%.

Which inhibition at 10 µM does the source give for O=c1c(-n2ccnn2)c[nH]n1-c1cc(N2CCOCC2)ncn1 [PCM-0215593] here?
Its inhibition at 10 µM is -16.2%.

For C=C1CC[C@H](O)C/C1=C/C=C1\CCC[C@]2(C)[C@@H]([C@H](C)/C=C/[C@H](C)C(C)C)CC[C@@H]12 [PCM-0214746], which inhibition at 10 µM is on record?
Its inhibition at 10 µM is -23.3%.

Which inhibition at 10 µM does the source give for CN(C)CCOC(c1ccccc1)c1ccccc1 [PCM-0065230] here?
The inhibition at 10 µM was 2.1%.

CC1=C[C@H]2[C@@H](CC1)[C@H](C)CC[C@H]2[C@@H](C)C(=O)O [PCM-0216135] was tested. Which inhibition at 10 µM did it give?
The inhibition at 10 µM was -3.1%.
